Reference: patent EP0623350A1, “Use of Bradykinin-antagonists for the manufacture of a medicament for the prophylaxis and treatment of arteriosclerosis” (HOECHST AKTIENGESELLSCHAFT, priority 1993, dated 1994)

What was measured:
Assay type in all cases: in vivo, weißen Kaninchen (New Zealand)
[1] = system: Serum Lipoprotein Fraktionen; experiment: Serum cholesterol/lipoprotein fractions (HDL, LDL, VLDL) by ultracentrifugation in cholesterol-fed rabbits
Excerpt: (§1) Der Versuch wurde mit weißen Kaninchen (New Zealand) männlichen Geschlechts mit einem Gewicht von 3-4 Kilogramm in Anlehnung an die publizierten Methoden nach A. Kisanuki, Y. Asada, K. Hatakeyama, T. Hayashi und A. Sumiyoshi: Contributions of the Endothelium to Intimal Thickening in Normocholesterolemic and Hypercholesterolemic Rabbits, Arteriosclerosis and Thrombosis (1992), 12; 1198 - 1205 und J. Cooke, A. Singer, P. Tsao, P. Zera, R.Rowan and M. Billingham: Antiatherogenic Effects of L-Arginine in the Hypercholesterolemic Rabbit(1992), 90; 1168 - 1172 durchgeführt. Nach einer Woche unter Standard-Kaninchenfutter (Altromin 2834, Lage-Lippe, Deutschland) wurden zwei Gruppen mit je 15 Kaninchen drei Monate lang mit cholesterinreicher Diät gefüttert. Die Diät enthielt 0.25% Cholesterin und 3% Kokosnußöl. Eine der beiden Gruppen erhielt zusätzlich eine subkutane Dauerinfusion von HOE 140 über implantierte osmotische Minipumpen über den gesamten Zeitraum von drei Monaten. Die Dosis betrug 100 µg/kg/Tag.
(§2) Danach wurden die Kaninchen mit einer hohen Dosis von Pentobarbital (40 mg/kg) getötet und eine komplette Autopsie durchgeführt. Die atherosklerotischen Plaques wurden durch Öl-Rot O ([…]) sichtbar gemacht, ihr Ausmaß mittels eines Bildanalysators quantifiziert und die prozentuale Plaquegröße in der Aorta bestimmt. Weiterhin wurden die Cholesterinfraktionen (HDL, LDL und VLDL) im Serum mit Hilfe der Ultrazentrifugation bestimmt.

[2] = system: atherosklerotischen Plaques in der Aorta; experiment: Atherosclerotic plaques in the aorta of cholesterol-fed rabbits (Oil Red O staining, image analysis)
Excerpt: as §1
(§3) Eine weitere Gruppe von 15 Kaninchen, die nicht-atherogene normale Diät erhielt, diente als negative Kontrolle. Futter und Wasser wurden ad libitum gegeben. Der Nachweis, daß die gewählte Dosis HOE 140 die Wirkung endogener Kinine hemmen kann, wurde über die Hemmung der blutdrucksenkenden Wirkung von exogenem Bradykinin geführt. Am Ende des Versuches, nach dreimonatiger Behandlung, wurden die Tiere narkotisiert und der basale Blutdruck gemessen. Der basale Blutdruck lag zwischen 100 und 110 mm Hg. Nach der Messung des basalen Blutdrucks wurde Bradykinin intraarteriell als Bolus in einer Dosis von 10 ng injiziert. Bei den Tieren mit normalem Futter führte dies zu einem Blutdruckabfall von 21 mm Hg, bei den Tieren mit atherogener Diät betrug der Blutdruckabfall 24 mm Hg. Bei Kaninchen mit atherogener Diät, die mit HOE 140 behandelt wurden, fiel der Blutdruck nur noch um 3.7 mm Hg, was eine effektive Hemmung der Bradykininwirkung durch HOE 140 anzeigte.
as §2

[3] = system: blutdrucksenkenden Wirkung von exogenem Bradykinin; experiment: Inhibition of the blood-pressure-lowering effect of exogenous bradykinin in anaesthetised rabbits; conditions: Bradykinin 10 ng intra-arterial bolus; anaesthetised rabbits on atherogenic diet after 3 months HOE 140 100 µg/kg/Tag s.c.; untreated controls 21 and 24 mm Hg
Excerpt: as §3

[4] = atherogenic diet 3 months plus HOE 140 100 µg/kg/Tag s.c. continuous infusion, mean ± S.E.M.

With `N=C(N)NCCC[C@@H](N)C(=O)N[C@@H](CCCNC(=N)N)C(=O)N1CCC[C@H]1C(=O)N1C[C@H](O)C[C@H]1C(=O)NCC(=O)N[C@@H](Cc1cccs1)C(=O)N[C@@H](CO)C(=O)N1Cc2ccccc2C[C@@H]1C(=O)N1[C@H](C(=O)N[C@@H](CCCNC(=N)N)C(=O)O)C[C@@H]2CCCC[C@@H]21` [HOE 140] the “Serum Lipoprotein Fraktionen, HDL” value [1, 4] was 4981 ± 576 µg/mL, the “Serum Lipoprotein Fraktionen, LDL” value [1, 4] was 168 ± 21 µg/mL and the “Serum Lipoprotein Fraktionen, VLDL” value [1, 4] was 250 ± 12 µg/mL. For the same molecule, the HDL-Werte ([1]; result in words, HDL raised by cholesterol-rich diet) was “keinen Einfluß”, the “LDL und VLDL (Serumlipide)” value ([1]; result in words, versus atherogenic diet alone, hardly distinguishable from normal-diet controls) was “stark erniedrigt” and the “Plaques in der Aorta: Fläche in Prozent der Intimafläche, Thorakale Aorta” value [2, 4] was 1.6 ± 1.1 Prozent der Intimafläche. The “Plaques in der Aorta: Fläche in Prozent der Intimafläche, Aortenbogen” value ([2]; atherogenic diet (0.25% Cholesterin, 3% Kokosnußöl) 3 months plus HOE 140 100 µg/kg/Tag s.c. continuous infusion, mean ± S.E.M.) was 23.4 ± 5.4 Prozent der Intimafläche, the “Plaques in der Aorta: Fläche in Prozent der Intimafläche, Abdominelle Aorta 1” value ([2]; first section of abdominal aorta, atherogenic diet 3 months plus HOE 140 100 µg/kg/Tag s.c. continuous infusion, mean ± S.E.M.) was 1.4 ± 0.6 Prozent der Intimafläche and the “Arteriosklerotische Veränderungen der Gefäßwände” value ([2]; result in words, cholesterol-fed rabbits treated with HOE 140) was “stark reduziert”. The “Atherosklerotische Veränderungen des Aortenbogens und der Aortenabschnitte in Brust und Bauch” value ([2]; result in words, versus atherogenic diet alone) was “bei weitem geringer”, the “Plaques in der Aorta: Fläche in Prozent der Intimafläche, Abdominelle Aorta 2” value ([2]; second section of abdominal aorta, atherogenic diet 3 months plus HOE 140 100 µg/kg/Tag s.c. continuous infusion, mean ± S.E.M.) was 7.0 ± 1.5 Prozent der Intimafläche and the “Blutdruckabfall nach Bradykinin” value [3] was 3.7 mm Hg.
